# Like-named read-outs stand apart in the source and are kept apart here.
# Tests used:
# Caco-2 cells = assay: Caco-2 cell study (permeability, efflux); type: in vitro ADME
# From the text: Caco-2 cells are used as a model of the intestinal epithelial barrier.
# E. coli = E. coli mouse infection model; type: in vivo; details: for translocation of bacteria to liver and spleen: oral, CFU in liver
# Procedure: FIG. 1: E. coli mouse infection model. CFU measured in tissue: colon, ileum, liver, spleen. Statistical analysis was performed by comparing all conditions to the vehicle-treated group and using one-way ANOVA with Dunnett post-hoc test, *** p<0.001, **** p<0.0001, ns non-significant.
# Compound 1 was administered orally to a mouse model of E. coli infection at 25 mg/kg, 73.5 mk/kg and 50 mg/kg. Compound 1 achieved the study goal of lowering Colony Unit Forming count in colon tissue by a factor of 3 log10 compared to vehicle treated animals.
# • Infecting mice through oral administration of a vancomycin resistant pathogenic strain of E. coli simplified the process of determining the mechanism(s) by which compound 1 exerts its effects on the pathogenic process. […] This is evidenced by the fact that there still are viable vancomycin resistant E. coli present in the colon and ileum at the conclusion of the experiment (FIG. 1). […] It is therefore unlikely that compound 1 is inhibiting E. coli translocation to these organs solely due to its ability to stimulate production of antibacterial peptides. […] That experiment was performed in the presence of cyclophosphamide, which is known to cause febrile neutropenia due to translocation of bacteria to vital organs. […] First is the ability of the compound 1 to attenuate the growth of bacteria and secondly is its ability to inhibit the bacterial translocation.
# recombinant human HDAC6 = biological target: T1, recombinant human HDAC6 (Homo sapiens, UniProt Q9UBN7); assay: HDAC6 in-vitro enzymatic assay; type: biochemical
# T1 construct: purchased BPS 50006
# T1 sequence (Q9UBN7 1-1215): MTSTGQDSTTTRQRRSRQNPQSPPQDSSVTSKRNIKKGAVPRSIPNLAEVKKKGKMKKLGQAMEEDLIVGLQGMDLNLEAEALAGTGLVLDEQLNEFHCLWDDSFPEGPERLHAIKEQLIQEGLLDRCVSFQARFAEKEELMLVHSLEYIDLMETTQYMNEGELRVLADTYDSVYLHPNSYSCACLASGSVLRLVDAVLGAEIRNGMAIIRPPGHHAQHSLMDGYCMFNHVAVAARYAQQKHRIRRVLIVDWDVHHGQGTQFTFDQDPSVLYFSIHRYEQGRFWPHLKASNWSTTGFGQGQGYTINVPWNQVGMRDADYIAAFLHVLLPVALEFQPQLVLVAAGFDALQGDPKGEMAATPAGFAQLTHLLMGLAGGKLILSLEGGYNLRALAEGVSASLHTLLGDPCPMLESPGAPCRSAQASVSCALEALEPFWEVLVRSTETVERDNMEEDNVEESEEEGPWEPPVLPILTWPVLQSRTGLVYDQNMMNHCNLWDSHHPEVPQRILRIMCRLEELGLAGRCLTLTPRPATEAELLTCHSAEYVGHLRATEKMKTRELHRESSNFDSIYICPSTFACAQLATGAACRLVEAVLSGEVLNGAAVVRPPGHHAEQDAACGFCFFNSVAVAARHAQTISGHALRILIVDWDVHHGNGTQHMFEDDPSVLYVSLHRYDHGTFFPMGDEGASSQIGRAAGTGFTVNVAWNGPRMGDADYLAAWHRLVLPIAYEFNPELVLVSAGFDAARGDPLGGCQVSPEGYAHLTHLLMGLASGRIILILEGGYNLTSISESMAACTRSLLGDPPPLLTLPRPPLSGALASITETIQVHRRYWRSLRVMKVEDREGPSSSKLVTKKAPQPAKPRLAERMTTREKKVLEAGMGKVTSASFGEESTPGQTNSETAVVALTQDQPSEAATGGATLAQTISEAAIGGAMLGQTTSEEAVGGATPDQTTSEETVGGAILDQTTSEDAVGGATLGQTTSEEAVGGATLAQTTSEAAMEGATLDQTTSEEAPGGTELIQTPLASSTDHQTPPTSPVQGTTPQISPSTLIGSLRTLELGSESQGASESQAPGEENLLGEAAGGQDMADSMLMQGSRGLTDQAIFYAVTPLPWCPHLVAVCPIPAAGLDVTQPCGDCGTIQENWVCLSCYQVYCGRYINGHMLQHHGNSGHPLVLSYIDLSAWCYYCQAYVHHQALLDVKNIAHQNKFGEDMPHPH
# Procedure: The purpose of the study is to determine the effects of Compound 1 on the enzymatic activities of recombinant human HDAC1, HDAC2, HDAC3, HDAC4, HDAC5, HDAC6, HDAC7, HDAC8, and HDAC9 using in-vitro enzymatic assays.
# All of the compounds were dissolved in DMSO. A series of dilutions of the compounds were prepared with 10% DMSO in HDAC assay buffer and 5 μl of the dilution was added to a 50 μl reaction so that the final concentration of DMSO was 1% in all of reactions. The compounds were pre-incubated in duplicate at RT for 30 minutes in a mixture containing HDAC assay buffer, 5 μg BSA, HDAC enzyme and a test compound. After 30 minutes, the enzymatic reactions were initiated by the addition of HDAC substrate to a final concentration of 20 μM or 2 μM. The enzymatic reaction proceeded for 30 minutes at 37° C. […] Fluorescence intensity was measured at an excitation of 360 nm and an emission of 460 nm using a Tecan Infinite M1000 microplate reader.
# HDAC activity assays were performed in duplicates at each concentration. The fluorescent intensity data were analyzed using the computer software, Graphpad Prism. […] The percent activity in the presence of each compound was calculated according to the following equation: % activity=(F−Fb)/(Ft−Fb), where F=the fluorescent intensity in the presence of the compound. […] The IC50 value was determined by the concentration causing a half-maximal percent activity.
# [1] = Rat pharmacokinetics (IV, PO); type: in vivo
compound,measurement,setting,value
"C#CCOCC(=O)Nc1ccc(C(=O)Nc2ccccc2N)cc1 [Compound 1, N-(2-aminophenyl)-4-{2-[(prop-2-yn-1-yl)oxy]acetamido}benzamide]",Caco-2 Permeability A-B dir.,Caco-2 cells,High
same,Caco-2 Permeability A-B dir.,Caco-2 cells; listed as compound 1,high
same,Active efflux,Caco-2 cells; Caco-2,No
same,dose dependence of attenuation of E. coli growth in the colon and ileum,E. coli; FIG. 1,shows dose dependence
same,dose dependence of inhibition of vancomycin resistant E. coli translocation to the liver and spleen,E. coli; FIG. 1,not compound 1 dose dependent
same,lowering Colony Unit Forming count in colon tissue compared to vehicle treated animals,"E. coli; administered orally at 25 mg/kg, 73.5 mk/kg and 50 mg/kg",3 log10
same,E. coli burden in the intestines reduced compared to control,"E. coli; colon and ileum, conclusion of the experiment",~3 logs
same,translocation of bacteria to liver and spleen,E. coli,completely knocking out translocation
same,translocation of bacteria to liver and spleen,E. coli; listed as compound 1,totally inhibiting its translocation
same,IC50,recombinant human HDAC6,> 200 µM
same,Inhib. HDAC6,recombinant human HDAC6; @ 200 μM,No Inhib. @ 200 μM
same,C_max IV - rat,[1]; IV,177 µM
same,V-d IV - rat,[1]; IV,565 mL/kg
same,C_max PO - rat,[1]; PO,3.3 µM
same,half-life,"[1]; in vivo, PO, read-out: Elimination T½ (min) PO - rat",34 min
same,half-life,"[1]; in vivo, intravenous, PIV, read-out: Elimination T½ (min) PIV - rat",66 min
same,bioavailability,"[1]; in vivo, oral",1%

# Source: patent publication US20250381157A1, “ANTIMICROBIAL COMPOUNDS” (priority 2022, published 2025)
